# Source: US10954325B2, “Raft agents and their use in the development of polyvinylpyrrolidone grafted nanoparticles” (UNIVERSITY OF SOUTH CAROLINA, priority 2014, dated 2021)
# What was measured:
# [1] = system: MRSA-252, HA-MRSA, CA-MRSA and MSSA; test: Disk diffusion assay, result stated over the tested strains together; assay type: cell-based, Staphylococcus aureus; details: when physically bound to the PVP grafted silica nanoparticles; against MRSA
# Text: (§1) The PVP grafted nanoparticles were employed to non-covalently attach the antibiotic penicillin-G (PenG) and tested for activity against bacteria. Methicillin-resistant Staphylococcus aureus (MRSA)-252, HA-MRSA, CA-MRSA and methicillin-sensitive Staphylococcus aureus (MSSA) were selected as the target bacteria. A control group of free PenG with the same dose was used for the disk diffusion assay of PenG-nanoparticle complex. […] Without wishing to be bound by any particular theory, it is believed that the enhanced inhibition activity was due to the locally high concentrations of antibiotics physically attached to PVP grafted nanoparticles, which overwhelms the bacterial resistance. The small size PVP grafted nanoparticles with controllable surface attached polymer chain lengths offers a significant vehicle to restore antibiotics activities.
# (§2) Bacteria Strains: MRSA 252 (ATCCBAA-1720); Staphylococcus aureus ATCC 29213 (community acquired-MRSA); Staphylococcus aureus ATCC BAA 1717 (hospital associated-MRSA); MSSA ATCC BAA 1718. These bacterial strains were grown at 37° C. in tryptic soy broth for 24 hours.
# (§3) Preparation of Nanoparticle-PenG Complex: To prepare the nanoparticle-PenG complex, 15 μL of PVP grafted silica nanoparticles solution (26.65 mg/ml) and 1.85 mL DI water were mixed. 200 μL Penicillin G sodium salt aqueous solution (1 mg/mL) was added and incubated at 24° C. […]
# [2] = system: MRSA 252 (ATCCBAA-1720); test: Disk diffusion assay, MRSA 252; assay type: cell-based, Staphylococcus aureus; details: at low doses
# Text: as §1, §2, §3
smiles,measurement,setting,value
"CC1(C)S[C@@H]2[C@H](NC(=O)Cc3ccccc3)C(=O)N2[C@H]1C(=O)[O-].[Na+] [free penicillin-G, penicillin-G]",activity of antibiotic over MRSA,[1],significantly increased
same,inhibition activity (disk diffusion),[2],completely ineffective
